Laboratory results: US6407265B2, “Tin polyoxaalkanecarboxylates and compositions containing them” (priority 1998, dated 2002)
Values after ≈ are worked out from the molar mass of the structure shown.

How the values were obtained:
Format in all cases: cell-based, human
[1] = tested on: MCF-7 (mammary cancer); conditions: in vitro, MCF-7 mammary cancer cell line
Text: (§1) The ID50 inhibition doses in ng/ml of the tested compounds are given in the table as well as those for some known reference compounds.

[2] = tested on: EVSA-T (mammary cancer); conditions: in vitro, EVSA-T mammary cancer cell line
Text: as §1

[3] = tested on: WiDr (colon carcinoma); conditions: in vitro, WiDr colon carcinoma cell line
[4] = tested on: IGROV (ovarian cancer); conditions: in vitro, IGROV ovarian cancer cell line
[5] = tested on: M19 MEL (melanoma); conditions: in vitro, M19 MEL melanoma cell line
[6] = tested on: A 498 (renal cancer); conditions: in vitro, A 498 renal cancer cell line
[7] = tested on: H226 (non small cell lung cancer); conditions: in vitro, H226 non small cell lung cancer cell line

| Molecule | ID50 inhibition dose MCF-7 [1] [µg/mL] | ID50 inhibition dose EVSA-T [2] [µg/mL] | ID50 inhibition dose WiDr [3] [µg/mL] | ID50 inhibition dose IGROV [4] [µg/mL] | ID50 inhibition dose M19 [5] [µg/mL] | ID50 inhibition dose A498 [6] [µg/mL] | ID50 inhibition dose H226 [7] [µg/mL] |
| --- | --- | --- | --- | --- | --- | --- | --- |
| O=c1[nH]cc(F)c(=O)[nH]1 [5-fluoro-uracil, reference compound] | 0.75 (≈ 5.77 µM) | 0.475 (≈ 3.65 µM) | 0.225 (≈ 1.73 µM) | 0.297 (≈ 2.28 µM) | 0.442 (≈ 3.4 µM) | 0.143 (≈ 1.1 µM) | 0.34 (≈ 2.61 µM) |
| O=C([O][Sn]([c]1ccccc1)([c]1ccccc1)[c]1ccccc1)c1ccc2c(c1)OCCOCCOCCOCCOCCO2 [Compound 1, triphenyltin 4,7,10,13,16,19-hexaoxadicyclo[16.4.0]dicosa-1,3 (20),21-triene-1-carboxylate] | 0.015 | 0.012 | 0.013 | 0.03 | 0.016 | 0.043 | 0.037 |
| CCC[CH2][Sn]([CH2]CCC)([CH2]CCC)[O]C(=O)c1ccc2c(c1)OCCOCCOCCOCCOCCO2 [Compound 2, tri-n-butyltin 4,7,10,13,16,19-hexaoxadicyclo[16.4.0]dicosa-1,3(20),21-triene-1-carboxylate] | 0.035 | 0.006 | 0.011 | 0.03 | 0.07 | 0.097 | 0.1 |
| CCC[CH2][Sn+2][CH2]CCC.O=C([O-])c1ccc2c(c1)OCCOCCOCCOCCOCCO2.O=C([O-])c1ccc2c(c1)OCCOCCOCCOCCOCCO2 [Compound 3] | 0.155 | 0.128 | 0.781 | 0.26 | 0.219 | 0.282 | 0.281 |
| O=C([O][Sn]([c]1ccccc1)([c]1ccccc1)[c]1ccccc1)c1ccc2c(c1)OCCOCCOCCOCCO2 [Compound 5, triphenyltin 4,7,10,13,16-pentaoxadicyclo[13.4.0]cosa-1,3 (17),18-triene-1-carboxylate] | <0.003 | <0.003 | <0.003 | <0.003 | <0.003 | <0.003 | <0.003 |
| CCC[CH2][Sn]([CH2]CCC)([O]C(=O)c1ccc2c(c1)OCCOCCOCCOCCO2)[O]C(=O)c1ccc2c(c1)OCCOCCOCCOCCO2 [Compound 7, di-n-butyltin bis[4,7,10,13,16-pentaoxadicyclo[13.4.0]cosa-1,3(17),18-triene-1-carboxylate]] | 0.273 | 0.237 | 0.332 | 0.321 | 0.286 | 0.049 | 0.854 |
| CCC[CH2][Sn]([CH2]CCC)([O]C(=O)COCCOC)[O]C(=O)COCCOC [Compound 10, di-n-butyltin bis(3,6-diheptanoate)] | 0.06 | 0.062 | 0.379 | 0.128 | 0.115 | 0.134 | 0.161 |
| N.N.[Cl][Pt][Cl] [cisplatin, reference compound] | 0.699 | 0.422 | 0.967 | 0.169 | 0.558 | 2.253 | 3.269 |
| COc1cccc2c1C(=O)c1c(O)c3c(c(O)c1C2=O)C[C@@](O)(C(=O)CO)C[C@@H]3O[C@H]1C[C@H](N)[C@H](O)[C@H](C)O1 [doxorubicin, reference compound] | 0.01 (≈ 0.0184 µM) | 0.008 (≈ 0.0147 µM) | 0.011 (≈ 0.0202 µM) | 0.06 (≈ 0.11 µM) | 0.016 (≈ 0.0294 µM) | 0.09 (≈ 0.166 µM) | 0.199 (≈ 0.366 µM) |
| COc1cc([C@@H]2c3cc4c(cc3[C@@H](O[C@@H]3O[C@@H]5CO[C@@H](C)O[C@H]5[C@H](O)[C@H]3O)[C@H]3COC(=O)[C@H]23)OCO4)cc(OC)c1O [etoposide, reference compound] |  |  | 0.15 (≈ 0.255 µM) | 0.58 (≈ 0.985 µM) | 0.505 (≈ 0.858 µM) | 1.314 (≈ 2.23 µM) | 3.934 (≈ 6.68 µM) |
| CN(Cc1cnc2nc(N)nc(N)c2n1)c1ccc(C(=O)N[C@@H](CCC(=O)O)C(=O)O)cc1 [methotrexate, reference compound] | 0.018 (≈ 0.0396 µM) | 0.005 (≈ 0.011 µM) | <0.003 | 0.007 (≈ 0.0154 µM) | 0.023 (≈ 0.0506 µM) | 0.037 (≈ 0.0814 µM) | 2.287 (≈ 5.03 µM) |
| bis[di-n-butyl(3,6,9-trioxadecanoato)tin]oxide [Compound 15] | <0.003 | <0.003 | 0.003 | <0.003 | <0.003 | <0.003 | <0.003 |
| bis[di-n-butyl(3,6-dioxaheptanoato)tin]oxide [Compound 11] | <0.003 | <0.003 | 0.006 | <0.003 | <0.003 | <0.003 | 0.005 |
